Test results reported in patent US20260265175A1, “METHOD FOR OBTAINING ORGANIC ACIDS FROM AN AQUEOUS MOTHER LIQUOR” (Covestro Deutschland AG, priority 2022, published 2026).

What was measured:
[1] = Precipitation of 2-aminobenzoic acid (oAB) from aqueous solution as metal compound; residual oAB in supernatant by HPLC; assay type: physicochemical; conditions: value is the detection limit
Description: The pH was adjusted to about 3.5 with a 1M NaOH solution (corresponding to the isoelectric point of oAB). […] The solid (Cu(oAB)2, Fe(oAB)2 and/or Mn(oAB)2) was separated from the liquid phase by centrifugation.

[2] = Cu(OH)2 roughly stoichiometric, pH 4.5, starting solution 12 g/L

Nc1ccccc1C(=O)O [oAB, 2-Aminobenzoic acid]
oAB concentration in aqueous supernatant after precipitation of the metal compound of the organic acid (sample A) ([1]; CuSO4, FeSO4 or MnSO4, metal salt:oAB 1:2, pH about 3.5, room temperature, starting solution 5 g/L): < 0.05 goAB/L
oAB concentration in liquid phase after precipitation with recycled metal hydroxide (sample C) ([1]; after addition both of Fe(OH)2 and Cu(OH)2, pH 3.5, starting solution 5 g/L): < 0.05 goAB/L

O=C(O)CCCCC(=O)O [adipic acid, Adipic acid]
adipic acid concentration in liquid phase after precipitation with recycled Cu(OH)2 (sample C) [2]: 3 g/L
